Experimental data taken from patent publication US12453726B2, “Methods of using factor B inhibitors” (priority 2020, dated 2025).
Counter-ions that a name gives are not always drawn.

How the values were obtained:
[1] = tested on: patients with IgA nephropathy; test: Study CLNP023X2203, safety and tolerability; format: in vivo, human; conditions: 200 mg b.i.d.
[2] = tested on: PNH patients with active hemolysis despite treatment with eculizumab; test: Phase 2 study CLNP023X2201 interim analysis: LNP023 hydrochloride add-on to eculizumab in PNH patients with active hemolysis; format: in vivo, human
Protocol: (§1) The dose of 200 mg LNP023 hydrochloride b.i.d. as continuous treatment has been selected for this Phase 3 study primarily based on the available efficacy and safety data obtained at the time of interim analyses from the two ongoing Phase 2 PNH studies (ClinicalTrials.gov Identifier: NCT03439839 and NCT03896152) and is supported by PKPD modeling results.
In the CLNP023X2201 study in patients with active hemolysis despite treatment with eculizumab, LNP023 hydrochloride at a dose of 200 mg b.i.d. was administered to 10 PNH participants (cohort 1) and at a dose of 50 mg b.i.d. to 6 PNH participants (cohort 2). An interim analysis (IA) was conducted after 10 participants (cohort 1) completed at least 12 weeks of treatment with LNP023 hydrochloride 200 mg b.i.d. add-on treatment to eculizumab.
(§2) The hematological response participants achieved with LNP023 hydrochloride 200 mg b.i.d. add-on therapy was maintained with LNP023 hydrochloride monotherapy during the extension period (at the time of the IA) when eculizumab treatment was discontinued in 5/10 participants who continued with LNP023 hydrochloride monotherapy. Following the IA, two additional participants discontinued eculizumab treatment.

alternative pathway = test: Exposure-response model from First In Human study data (Wieslab assay); conditions: dose of about 200 mg b.i.d., in >70% of subjects; model built on healthy volunteer data
Protocol: The exposure-response model developed with data from the First In Human (FIH) study with LNP023 hydrochloride in healthy volunteers predicts that a dose of about 200 mg b.i.d. would be needed to achieve >90% inhibition of the alternative pathway (Wieslab assay) in >70% of subjects. Given the risk of hemolysis and breakthroughs in cases of insufficient inhibition of complement activity, full inhibition is desired and modelling results provide additional support for the choice of the dose of 200 mg b.i.d. for PNH.

[3] = tested on: patients with C3 glomerulopathy; test: Study CLNP023X2202, safety and tolerability; format: in vivo, human; conditions: 200 mg b.i.d.
[4] = tested on: anti-C5 antibody treatment naive PNH patients; test: Phase 2 study interim analysis: LNP023 hydrochloride monotherapy in anti-C5 antibody treatment naive PNH patients; format: in vivo, human
Protocol: as §1
In the Phase 2 study (NCT03439839) in anti-C5 antibody treatment naive patients, participants received LNP023 hydrochloride monotherapy with sequential dose increments at Week 4 from LNP023 hydrochloride 25 mg b.i.d. to 100 mg b.i.d (sequence 1) or LNP023 hydrochloride 50 mg b.i.d. to 200 mg b.i.d. (sequence 2). An IA was conducted after 8 patients were randomized and 7 patients completed Week 8 visit assessments.
as §2

[5] = 200 mg b.i.d. added to eculizumab
[6] = 200 mg b.i.d. as add-on to eculizumab, cohort 1, interim analysis
[7] = 200 mg b.i.d., PNH participants

CCO[C@H]1CCN(Cc2c(OC)cc(C)c3[nH]ccc23)[C@H](c2ccc(C(=O)O)cc2)C1 [LNP023 hydrochloride, 4-((2S,4S)-(4-ethoxy-1-((5-methoxy-7-methyl-1H-indol-4-yl)methyl)piperidin-2-yl))benzoic acid hydrochloride]
safety and tolerability [1]: safe and well tolerated
C3 deposition [2, 5]: fully reversed
Fragment Bb (target engagement) [2, 5]: profound and sustained reduction
inhibition of the complement alternative pathway [2, 5]: sustained inhibition
survival of PNH red blood cells [2, 5]: prolonged
bilirubin (control of EVH) [2, 6]: reduction
haptoglobin (control of EVH) [2, 6]: increase
hemoglobin in the absence of red blood cell transfusions [2, 6]: normalization of hemoglobin in the majority of patients
reticulocytes (control of EVH) [2, 6]: reduction
control of IVH demonstrated by LDH ([2]; 200 mg b.i.d. as add-on to eculizumab, cohort 1, interim analysis after at least 12 weeks): LDH reduction
hematological response during the extension period after eculizumab was discontinued ([2]; 200 mg b.i.d. monotherapy, 5/10 participants who discontinued eculizumab): maintained
safety and tolerability [2, 7]: safe and well tolerated
response at 50 mg b.i.d. ([2]; cohort 2, 50 mg b.i.d., preliminary, three participants required up-titration to 200 mg b.i.d.): suboptimal response
predicted inhibition of the alternative pathway (Wieslab assay) (alternative pathway): > 90%
safety and tolerability [3]: safe and well tolerated
safety and tolerability [4, 7]: safe and well tolerated
bilirubin (extravascular hemolysis) ([4]; monotherapy): decrease
haptoglobin (extravascular hemolysis) ([4]; monotherapy): increase
reticulocytes (extravascular hemolysis) ([4]; monotherapy): decrease
transfusion-free hemoglobin ([4]; monotherapy, dose levels ≥25 mg b.i.d.): early transfusion-free hemoglobin increase in the majority of participants
LDH reduction from baseline ([4]; monotherapy, dose levels ≥25 mg b.i.d., all participants): more than 60%
